From US12613249B2 (THE ROYAL INSTITUTION FOR THE ADVANCEMENT OF LEARNING / …, priority 2019, dated 2026)
Square brackets hold non-standard residues; d marks the D form. Peptide text beside a SMILES is read from it.

What was measured:
metalloproteases [1] = test: Metalloprotease inhibition in APP-overexpressing SH-SY5Y cells, 4-plex MSD; format: cell-based, human; settings: supernatant
Excerpt: (§1) Using the ELISA Conversion Kit from Meso Scale Discovery (MSD, USA), an electrochemiluminescence-based assay was developed (neo-epitope specific Aβ34 and the sulfo-tagged 6E10 (binds to the N-terminus of human Aβ) or the sulfo-tagged 4G8 for murine samples (binds to the mid domain of Aβ)). High-bind or custom-printed 4-plex plates (using the mab34, 4G8 (Biolegend) for pan-Aβ assay, G2−10 for 1-plex Aβ40 assay, and MSD's validated mouse monoclonal anti-Aβ38, anti-Aβ40, as well as anti-Aβ42 antibodies, see MSD Aβ peptide V-PLEX) were blocked (MSD 5% Blocker A in PBS) for 1 h at 22° C. and washed three times with PBS-T for 1 min. at 22° C., loaded with SULFO-TAG™ 6E10 or 4G8 detection antibody (diluted to 1× in MSD Diluent 100) and sample or peptide calibrator (in MSD Diluent 35 or cell culture medium), and incubated for 16 h at 4° C. with shaking at 600 rpm. After three washing steps with PBS-T for 1 min. at 22° C., 150 μL 2×MSD read buffer were added per well. All plates were read using a MSD QuickPlex SQ 120 Imager and data analyzed using MSD Workbench® software. Standard curves were fitted using a non-linear four-parameter logistic fit with 1/y^2 weighting. The equation is: […]

metalloproteases [2] = test: Metalloprotease inhibition in BACE1-overexpressing SH-SY5Y cells, 4-plex MSD; format: cell-based, human; settings: supernatant
Excerpt: as §1

mouse plasma = settings: C57BL/6 male and female mice, 37° C., up to 24 h
[3] = Ex-vivo stability in mouse liver S9-fraction, MALDI-TOF MS; format: in vitro ADME, C57BL/6 mice; settings: mouse liver S-9 fraction, after 24 h
Procedure: (§2) The stability of D-AIP in mouse plasma, blood and liver S-9 fraction was investigated to ascertain the metabolic resistance towards proteases and enzymatic activities in these matrices. Whole mouse blood obtained from healthy C57BL/6 male and female mice (6 mice in total) were collected in lithium heparin containing tubes, pooled and stored at 4° C. prior to its use. A fraction of the pooled blood was immediately centrifuged at 1500×g for 10 min at 4° C. to obtain the plasma. The whole blood and plasma samples were spiked with PBS (as control) or AIP (L-AIP, D-AIP or sD-AIP respectively) to make a final concentration of 1 ug/mL and incubated at 37° C. Initial samples were withdrawn to represent t=0 prior to incubation and others were withdrawn 1, 3 and 24 h respectively. Fresh mouse liver also obtained from C57BL/6 male and female mice were pooled, homogenized in 0.15 M Potassium chloride (KCl) and centrifuged at 9000×g. The supernatant represents liver homogenate (S-9) fraction which was mixed with other buffers to formulate the liver S-9 mix as previously described (Kolrep et al., 2017, Toxicol In Vitro, 42:161-170). Liver S-9 mix were spiked with AIP to make a final concentration of 1 μg/mL (L-AIP, D-AIP or sD-AIP respectively) and incubated at 37° C. Just after the addition of NADPH, 100 μL aliquot which represents t=0 samples were withdrawn and others were sampled accordingly at predetermined time points. 400 μL of ice cold MeOH was added to the spiked plasma, blood or liver S-9 fraction respectively, to precipitate the microsomal protein. The samples were then vigorously mixed for 30 s to facilitate extraction and centrifuged for 10 minutes at 13000 rpm, the supernatant was subjected to sample clean up by C18 ZipTip (EMD Millipore Corporation), the eluates were spotted with CHCA matrix on the ground steel MALDI-TOF target and analyzed with MALDI-TOF MS. Applying the t=0 peak area as 100% the intensities of the other time points were compared relatively for interpretation. […]

[4] = Ex-vivo stability in mouse whole blood, MALDI-TOF MS; format: in vitro ADME; settings: both sexes, C57BL/6, 24 h incubation, read-out: decrease of signal
Procedure: as §2

With `CC(C)C[C@H](NP(=O)(O)O[C@@H]1O[C@@H](C)[C@H](O)[C@@H](O)[C@H]1O)C(=O)N[C@@H](Cc1c[nH]c2ccccc12)C(=O)O` [PA, phosphoramidon] the “increase of Aβ34” value (metalloproteases [1]) was “approximately 9 fold”, the “increase of Aβ38, Aβ40, and Aβ42” value (metalloproteases [1]) was 2-3 fold and the “Aβ38, Aβ40, and Aβ42 levels” value (metalloproteases [2]) was “not significantly changed”. The “increase of Aβ34” value (metalloproteases [2]) was “about 2.5 fold”.
For “D-amino acids of RGTFEGKF (H-[dR]G[dT][dF][dE]G[dK][dF]-OH; N-terminus and C-terminus assumed; SMILES C[C@H](O)[C@@H](NC(=O)CNC(=O)[C@H](N)CCCNC(=N)N)C(=O)N[C@H](Cc1ccccc1)C(=O)N[C@H](CCC(=O)O)C(=O)NCC(=O)N[C@H](CCCCN)C(=O)N[C@H](Cc1ccccc1)C(=O)O)”, the not cleaved (mouse plasma) was “relatively stable over 24 h in mouse plasma”.
For `C[C@H](O)[C@@H](NC(=O)[C@@H](Cc1ccccc1)NC(=O)[C@@H](CCCCN)NC(=O)[C@@H](CCCNC(=N)N)NC(=O)[C@@H](Cc1ccccc1)NC(=O)[C@H](N)CCC(=O)O)C(=O)NCC(=O)NCC(=O)O` [sD-AIP, reference compound] (H-[dE][dF][dR][dK][dF][dT]GG-OH; N-terminus and C-terminus assumed), the “signal intensity compared to the unincubated sample” value [3] was “four-fold reduced intensity” and the metabolised at 24 h, 1 ug/mL [4] was about 50%.
